Experimental data taken from US6100280A, “Narcotic antagonist” (Pola Chemical Industries, Inc., priority 1995, dated 2000).

Assays:
[1] = molecular target: T1, (cocaine derivative [^3 H]WIN35,428 binding, striatum) (Rattus norvegicus, UniProt P23977); assay: In vitro binding inhibition assay against a cocaine derivative ([^3 H]WIN35,428), striatum crude membrane; parameters: species or system male Wistar rats; conditions: [^3 H]WIN35,428 0.5 nM, 2 hours on ice (0-4° C.), pH 7.4, Hill plotting, read-out: 50% Inhibition concentration
T1 construct: from tissue; host or cells: striatum of male Wistar rats, crude membranes
Description: (§1) Male Wistar rats were decapitated. From each rat, striatum was immediately removed, and its wet weight was measured. The tissue of striatum was homogenized using a polytron together with a 10-fold amount of 50 mM Tris-HCl buffer (pH 7.4) while being cooled on ice. The homogenate was centrifugally separated (38,700 G, 20 minutes, 4° C.), and the resulting pellet was suspended in a mixture of a 40-fold amount (based on the original tissue weight) of 50 mM Tris-HCl and 100 mM NaCl buffer (pH 7.4).
(§2) The contents were allowed to react for 2 hours on ice (0-4° C.). Reaction was terminated by passing the contents through a glass filter (GF/B, product of Whatman) which had been immersed in 0.1% BSA solution for at least 40 minutes in advance while aspiration was carried out using a cell harvester, followed by washing three times with 5 ml of 50 mM Tris HCl buffer (pH 7.4). The filter and 10 ml of aquazol 2 (product of NEN) were placed in a vial and allowed to stand overnight. Radioactivity was measured using a liquid scintillation counter. […] Specific binding amounts were determined by subtracting the nonspecific binding amounts from the total binding amounts. Fifty(50)% inhibition concentrations were calculated using Hill plotting.

[2] = molecular target: T2, narcotic receptors (cocaine derivative [^3 H]WIN35,428 binding, striatum) (Rattus norvegicus, UniProt P23977); assay: Ex vivo binding inhibition assay ([^3 H]WIN35,428, striatum after intraperitoneal administration); type: in vivo, male Wistar rats; conditions: 30 mg/kg intraperitoneally, 30 minutes after administration, [^3 H]WIN35,428 0.5 nM; control (saline) 0%
T2 construct: from tissue; host or cells: striatum of male Wistar rats, crude membranes
Description: Ex vivo binding inhibition assay
as §1, with “To each male” for “Male”, “Wistar rat, 30 mg/kg of compound 15 was intraperitoneally administered. Thirty minutes after administration,” for “Wistar”, “(20,000” for “(38,700”, “20-fold” for “40-fold”
as §2, with “Control accounts for the sole use of a saline solution administered to rats intraperitoneally. […]” for “Fifty(50)% inhibition concentrations were calculated using Hill plotting.”

T1 sequence (P23977 whole entry): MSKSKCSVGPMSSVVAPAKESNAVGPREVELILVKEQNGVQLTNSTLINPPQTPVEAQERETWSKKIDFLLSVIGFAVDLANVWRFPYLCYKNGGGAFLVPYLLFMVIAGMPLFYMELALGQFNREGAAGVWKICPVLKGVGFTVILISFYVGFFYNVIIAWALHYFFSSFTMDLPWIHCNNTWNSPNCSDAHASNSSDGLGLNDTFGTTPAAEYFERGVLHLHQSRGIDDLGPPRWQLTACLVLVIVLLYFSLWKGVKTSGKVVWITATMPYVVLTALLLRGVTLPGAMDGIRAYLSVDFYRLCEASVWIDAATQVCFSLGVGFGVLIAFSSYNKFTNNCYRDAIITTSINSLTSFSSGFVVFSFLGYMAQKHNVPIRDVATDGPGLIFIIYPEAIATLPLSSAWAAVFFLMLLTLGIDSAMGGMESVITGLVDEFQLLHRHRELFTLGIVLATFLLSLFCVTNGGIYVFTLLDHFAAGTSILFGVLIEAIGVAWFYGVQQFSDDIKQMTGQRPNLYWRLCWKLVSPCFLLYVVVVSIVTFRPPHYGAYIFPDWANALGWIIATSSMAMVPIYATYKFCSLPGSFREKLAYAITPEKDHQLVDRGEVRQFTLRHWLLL
T2 sequence (P23977 whole entry): as above

Row | Compound | IC50 [1] | binding inhibitory ratio [2]
1 | COC(CNc1ccccc1)CN1CCN(CCCC(c2ccc(F)cc2)c2ccc(F)cc2)CC1 (stereo not shown) [Compound 8, 1-[4,4-bis(4-fluorophenyl)-butyl]-4-(2-methoxy-3-phenylaminopropyl)piperazine.2HCl] | 23.7 nM | –
2 | OC(CNc1ccccc1)CN1CCN(C(c2ccc(F)cc2)c2ccc(F)cc2)CC1 (stereo not shown) [Compound 2, 1-[bis(4-fluorophenyl)-methyl]-4-[2-hydroxy-3-phenylaminopropyl)-piperazine.2HCl] | 51.6 nM | –
3 | Nc1ccc(NCC(O)CN2CCN(CCCC(c3ccc(F)cc3)c3ccc(F)cc3)CC2)cc1 (stereo not shown) [Compound 23, 1-[3-(4-aminophenylamino)-2-hydroxypropyl]-4-[4,4-bis(4-fluorophenyl)butyl]-piperazine.3C4H4O4] | 534 nM | –
4 | CC(C)(C)c1cc(NCC(O)CN2CCN(CCCC(c3ccc(F)cc3)c3ccc(F)cc3)CC2)cc(C(C)(C)C)c1O (stereo not shown) [Compound 22, 1-[4,4-bis(4-flurophenyl)-butyl]-4-[3-(3,5-di-tert-butyl-4-hydroxyphenylamino)-2-hydroxypropyl]piperazine..3C4H4O4] | 306 nM | –
5 | OC(CNc1ccccc1)CN1CCN(CCCC(c2ccc(F)cc2)c2ccc(F)cc2)CC1 (single isomer, unassigned) [Compound 15, (--)-1-[4,4-bis(4-fluorophenyl)butyl]-4-(2-hydroxy-3-phenylaminopropyl)-piperazine.2HCl] | 37.6 nM | 86.1%
6 | OC(CNc1ccccc1)CN1CCN(CCCC(c2ccc(F)cc2)c2ccc(F)cc2)CC1 (single isomer, unassigned; (+)) [Compound 16, (+)-1-[4,4-bis(4-fluorophenyl)butyl)-4-(2-hydroxy-3-phenylaminopropyl)-piperazine.2HCl] | 52.6 nM | –
7 | OC(CNc1ccccc1)CN1CCN(CCCC(c2ccc(F)cc2)c2ccc(F)cc2)CC1 (stereo not shown) [Compound 1, 1-[4,4-bis(4-fluorophenyl)-butyl]-4-(2-hydroxy-3-phenylaminopropyl)piperazine.2HCl] | 44.8 nM | –
8 | OC(CNCc1ccccc1)CN1CCN(CCCC(c2ccc(F)cc2)c2ccc(F)cc2)CC1 (stereo not shown) [Compound 3, 1-[4,4-bis(4-fluorophenyl)-butyl]-4-(2-hydroxy-3-benzylaminopropyl)-piperazine.2HCl] | 31.7 nM | –
9 | Oc1ccc(NCC(O)CN2CCN(CCCC(c3ccc(F)cc3)c3ccc(F)cc3)CC2)cc1 (stereo not shown) [Compound 25, 1-[4,4-bis(4-flurophenyl)-butyl]-4-[2-hydroxy-3-(4-hydroxyphenylamino)propyl]-piperazine.2C4H4O4] | 23.7 nM | –
10 | OC(CNc1ccccc1)CN1CCN(CCC(c2ccc(F)cc2)c2ccc(F)cc2)CC1 (stereo not shown) [Compound 18, 1-[3,3-bis(4-fluorophenyl)-propyl]-4-[2-hydroxy-3-phenylaminopropyl)piperazine] | 15 nM | –
11 | CN(CC(O)CN1CCN(CCCC(c2ccc(F)cc2)c2ccc(F)cc2)CC1)c1ccccc1 (stereo not shown) [Compound 6, 1-[4,4-bis(4-fluorophenyl)-butyl]-4-[2-hydroxy-3-(N-methyl-N-phenylamino)-propyl]piperazine.2C4H4O4] | 34.9 nM | –
12 | OC(CNc1ccc(F)cc1)CN1CCN(CCCC(c2ccc(F)cc2)c2ccc(F)cc2)CC1 (stereo not shown) [Compound 9, 1-[4,4-bis(4-fluorophenyl)-butyl]-4-[3-(4-fluorophenylamino)-2-hydroxypropyl]-piperazine.2HCl] | 46.8 nM | –
13 | CC(=O)OC(CNc1ccccc1)CN1CCN(CCCC(c2ccc(F)cc2)c2ccc(F)cc2)CC1 (stereo not drawn) [Compound 7, l-(2-acetoxy-3-phenylamino-propyl)-4-[4,4-bis(4-fluorophenyl)butyl]piperazine.2C4H4O4] | 41.2 nM | –
14 | COc1cc(NCC(O)CN2CCN(CCCC(c3ccc(F)cc3)c3ccc(F)cc3)CC2)cc(OC)c1OC (stereo not shown) [Compound 11, 1-[4,4-bis(4-fluorophenyl)-butyl]-4-[2-hydroxy-3-(3,4,5-trimethoxyphenylamino)-propyl]piperazine.2C4H4O4] | 197 nM | –
15 | O=[N+]([O-])c1ccc(NCC(O)CN2CCN(CCCC(c3ccc(F)cc3)c3ccc(F)cc3)CC2)cc1 (stereo not shown) [Compound 20, 1-[4,4-bis(4-fluorophenyl)butyl]-4-[2-hydroxy-3-(4-nitrophenylamino)propyl]-piperazine.2HCl] | 55.8 nM | –
16 | CC(=O)N(CC(O)CN1CCN(CCCC(c2ccc(F)cc2)c2ccc(F)cc2)CC1)c1ccccc1 (stereo not shown) [Compound 4] | 49.5 nM | –
17 | COc1ccc(NCC(O)CN2CCN(CCCC(c3ccc(F)cc3)c3ccc(F)cc3)CC2)cc1 (stereo not shown) [Compound 13, 1-[4,4-bis(4-fluorophenyl)-butyl]-4-[2-hydroxy-3-(4-methoxyphenylamino)propyl]-piperazine.2HCl] | 105 nM | –
18 | OC(CNc1ccccc1)CN1CCN(CC(c2ccccc2)c2ccccc2)CC1 (stereo not shown) [Compound 19, 1-[2,2-diphenylethyl)-4-(2-hydroxy-3-phenylamino-propyl)piperazine.2HCl] | 72.2 nM | –
19 | COC(=O)[C@H]1[C@@H](c2ccccc2)C[C@@H]2CC[C@H]1N2C [WIN35,065-2, reference compound] | 118 nM | –
20 | OC(CNc1ccncc1)CN1CCN(CCCC(c2ccc(F)cc2)c2ccc(F)cc2)CC1 (stereo not shown) [Compound 17, 1-[4,4-bis(4-fluorophenyl)-butyl)-4-[2-hydroxy-3-(4-pyridylamino)propyl]-piperazine.2C4H4O4] | 45 nM | –
21 | OC(CNc1ccccc1)CN1CCN(CCCCC(c2ccc(F)cc2)c2ccc(F)cc2)CC1 (stereo not shown) [Compound 21, 1-[5,5-bis(4-flurophenyl)-pentyl]-4-(2-hydroxy-3-phenylaminopropyl)piperazine.2HCl] | 41.2 nM | –
